Source: US20090291083A1, “BARB4 TARGET, ANTIBODY DESIGNATED BARB4, BARB4 RELATED ANTIBODIES, AND METHODS OF MAKING AND USING SAME” (PATRYS LIMITED, priority 2008, published 2009)
Read-outs that look alike come from different tables or passages of the source.

Columns and labels:
Assay in all cases: MTT cell proliferation assay (Table 2)
Format in all cases: cell-based, human
BxPC-3 = tested on: BxPC-3
Description: (§1) BARB4 was also evaluated for inhibition of proliferation of other cancer cell lines, including BxPC-3, COLO 205, H460, MDA-MB-231 and MIAPaCa-2 cells, as well as HT-29, HCT-116, BxPC-3, PANC-1, A549, PC-3 and HCT116 cells. In brief, various human cancer cell lines obtained from the American Type Culture Collection (ATCC) were established using standard in vitro culture methods and ATCC recommended media in 175 cm2 BD tissue culture treated flasks. In particular, MDAMB-231 cultures were incubated in a humidified 37° C., 100% air incubator, and BxPC-3, COLO 205, H460 and MIAPaCa-2 cultures were incubated in a humidified 37° C., 5% CO2, 95% air incubator. Cultures were sub-cultivated regularly to maintain log phase growth. All cell lines were brought up from cryopreservation using the original recommended ATCC media type and supplements. Cell line specific seeding densities were based on historical data from MIR Preclinical Services for growth over a 72 hr period.
(§2) On the day of IC50 plate seeding, the adherent cells were removed from the flasks for each cell line using trypsin EDTA, 1× (Cell Gro #25-053-CI). Trypsin was deactivated using complete media and the cells were pooled (each line done separately). The pooled cells in complete media were counted using trypan blue exclusion with a Neubauer Bright-Line® hemacytometer. The percent viability for each cell line was as follows:
(§3) Based on live cell counts, each suspension was then diluted in complete media (containing required supplements) to achieve the desired seeding density for each cell line. Once seeded, the cells were allowed to attach to the plates overnight and then treated with BA4 or cisplatin 24 hr post-seeding.
(§4) BARB4 was serially diluted 1:2 (2× final conc. in dilution reservoir=1600 μg/ml) in media to achieve a final 800 μg/ml starting concentration in the top dosage wells of the treatment plate by diluting 1:2 when transferred from the reservoir to the treatment plate. Antibody was added to columns 1 through 10 of the treatment plate. Column 11 was for cells+media only control and column 12 was for a media only blank. Cisplatin (positive control) was manufactured by Sigma (# M4394, lot 087K1349) and supplied as a fine, dark yellow powder, in an amber vial, stored at room temperature and housed in a covered box to prevent exposure to light. Cisplatin was previously dissolved in 0.9% saline to make a clear, colorless 4 mM stock solution, aliquoted and frozen at −20° C. Frozen aliquots were quickly thawed by holding the tubes in hand, placed on wet ice and diluted (2× conc. dilution reservoir) to achieve a final 1 mM starting concentration in the top dosage wells of the treatment plate (diluted 1:2 when transferred from the dilution reservoir to the treatment plate). Serial dilutions of 1:4 were made from wells 1 through 10 of the dilution reservoir prior to transfer to the treatment plate.
(§5) The BARB4 stock solution (10.5 mg/ml) was prepared by dilution in complete media according to the table below for a final starting treatment concentration of 800 μg/ml. The 4 mM stock solution of cisplatin in 0.9% saline was diluted in complete media for a final starting treatment concentration of 1 mM.
(§6) Cells were exposed to BARB4 or cisplatin for a 24 hr period. The plates were incubated overnight at 37° C. At 24 hr and 48 hr post-treatment, the MTT assay was performed as described below.
(§7) The anti-proliferative activity of BARB4 and cisplatin was evaluated using the MTT cell proliferation assay (ATCC catalog #30-1010K). The assay is based on the reduction of yellow tetrazolium MTT (3-(4,5-dimethylthiazolyl-2)-2,5-diphenyltetrazolium bromide) by metabolically active cells forming purple formazan crystals. […]

COLO 205 = tested on: COLO 205
Description: as §1, §2, §3, §4, §5, §6, §7

H460 = tested on: H460
Description: as §1, §2, §3, §4, §5, §6, §7

MDA-MB-231 = tested on: MDA-MB-231
Description: as §1, §2, §3, §4, §5, §6, §7

MIAPaCa-2 = tested on: MIAPaCa-2
Description: as §1, §2, §3, §4, §5, §6, §7

[1] = MTT 24 hr post-treatment, read-out: IC50, Cisplatin (24 hr)
[2] = MTT 48 hr post-treatment, read-out: IC50, Cisplatin (48 hr)

How did the IC50 (BxPC-3; BxPC-3, MTT 24 hr post-treatment, read-out: IC50, Cisplatin (24 hr)) turn out when `N.N.[Cl][Pt][Cl]` [Cisplatin, reference compound] was run?
The IC50 was 39.2 µM.

And the IC50 (BxPC-3; BxPC-3, MTT 48 hr post-treatment, read-out: IC50, Cisplatin (48 hr))?
The IC50 was 9.41 µM.

And the IC50 (BxPC-3; BxPC-3 repeat, MTT 24 hr post-treatment, read-out: IC50, Cisplatin (24 hr))?
Its IC50 is 13.6 µM.

What about the IC50 (BxPC-3; BxPC-3 repeat, MTT 48 hr post-treatment, read-out: IC50, Cisplatin (48 hr)) of the same compound?
Its IC50 is 5.65 µM.

And the IC50 (COLO 205; [1])?
Its IC50 is 58.5 µM.

What about the IC50 (COLO 205; [2]) of the same compound?
The IC50 was 62.9 µM.

And the IC50 (H460; [1])?
The IC50 was 63.3 µM.

What about the IC50 (H460; [2]) of the same compound?
Its IC50 is 6.37 µM.

What about the IC50 (MDA-MB-231; [1]) of the same compound?
Its IC50 is 97.5 µM.

And the IC50 (MDA-MB-231; [2])?
Its IC50 is 233 µM.

And the IC50 (MIAPaCa-2; [1])?
Its IC50 is 43.9 µM.

What about the IC50 (MIAPaCa-2; [2]) of the same compound?
The IC50 was 29.8 µM.
